Earlier results as cited in patent US20100168176A1, “NOVEL COMPOUNDS, PHARMACEUTICAL COMPOSITIONS CONTAINING SAME, AND METHODS OF USE FOR SAME” (FASGEN LLC, priority 2006, published 2010).

Experiments:
[1] = target: viral HIV protease (Human immunodeficiency virus type 1 group M subtype B, UniProt P04585); conditions: cited from earlier work
[2] = test system: Mycobacterium tuberculosis; conditions: in vitro; cited from earlier work

C/C=C/C/C=C/CCC(=O)[C@H]1O[C@H]1C(N)=O [cerulenin, (2S,3R)-2,3-epoxy-4-oxo-7,10 dodecadienoyl amide]
inhibition of viral HIV protease at [1]: 5 mg/mL | activity against Mycobacterium tuberculosis [2]: no activity was found
